From patent US12083101B2, “Biaryl derivatives as YAP/TAZ-TEAD protein-protein interaction inhibitors” (Novartis AG, priority 2020, dated 2024)
Like-named read-outs stand apart in the source and are kept apart here.

Key:
[1] = tested on: MKN-45/Ubc-luc cells; assay: Proliferation assay (resazurin), MKN-45; assay type: cell-based; conditions: 72 hours incubation
[2] = biological target: Avi-humanTEAD4 217-434 / Cy5 labeled humanYAP 60-100 (Homo sapiens (Human), UniProt Q15561); assay: TR-FRET YAP-TEAD4 in-vitro biochemical assay; assay type: binding; conditions: 1 nM Avi-humanTEAD4 217-434, 20 nM Cy5-humanYAP 60-100, 1 h room temperature
Sequence of Avi-humanTEAD4 217-434 / Cy5 labeled humanYAP 60-100 (Q15561 217-434): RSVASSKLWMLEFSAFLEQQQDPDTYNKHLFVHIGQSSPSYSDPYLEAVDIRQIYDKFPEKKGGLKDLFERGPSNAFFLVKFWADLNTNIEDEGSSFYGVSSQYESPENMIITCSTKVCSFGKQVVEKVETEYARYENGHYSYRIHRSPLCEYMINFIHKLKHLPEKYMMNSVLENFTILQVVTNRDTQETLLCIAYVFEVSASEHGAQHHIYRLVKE

[3] = tested on: MKN-45/Ubc-luc cells; assay: Reporter gene specificity control (Ubc-luciferase), MKN-45
[4] = tested on: NCI-H2052 Tet-On shYAP_2371 pLenti6 MCAT_Luc cells (YAP-dependent transcription); assay: YAP reporter gene activity assay (MCAT-luciferase), NCI-H2052; assay type: cell-based; conditions: 24 hours incubation, BrightGlo luminescence
In short: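 NCI-H2052 cells carrying an MCAT-luciferase reporter and a tetracycline-inducible YAP 3′UTR shRNA were treated with eleven 2-fold compound dilutions (0.1% DMSO) for 24 h at 37 °C. BrightGlo luminescence was background-subtracted and expressed as % of DMSO control. IC50 came from a four-parameter fit; MKN-45/Ubc-luc cells served as the specificity counterscreen.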

[5] = tested on: NCI-H2052 Tet-On shYAP_2371 pLenti6 MCAT_Luc cells; assay: Proliferation assay (resazurin), NCI-H2052; assay type: cell-based; conditions: 72 hours incubation
In short: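 The NCI-H2052 line carries a Tet-inducible shRNA against the YAP1 3′UTR and an MCAT luciferase reporter. The day after seeding, it received eleven 2-fold compound dilutions at 0.1% DMSO, and viability was read by resazurin fluorescence.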

[6] = Homo sapiens, MKN-45, 24 h, read-out: Reporter gene assay MKN-45 IC50 [μM], MKN-45/Ubc-luc cells (YAP deleted, specificity control), 24 hours incubation
[7] = read-out: Reporter gene assay MKN-45 IC50, MKN-45/Ubc-luc cells (YAP deleted, specificity control), 24 hours incubation

Row | GI50 ([1]; Homo sapiens) [nM] | IC50 [2] [nM] | IC50 [3, 6] [µM] | IC50 ([4]; Homo sapiens, NCI-H2052, 24 h) [nM] | GI50 ([5]; Homo sapiens, NCI-H2052, 72 h) [nM] | GI50 [1] [nM] | IC50 [3, 7] [µM] | IC50 [4] [nM] | GI50 [5] [nM] | SMILES
1 | > 10000 | < 1 | > 10 | 24 | 104 | – | – | – | – | CNC(=O)c1ccc(OCCO)c(F)c1-c1c(Cl)c(F)cc2c1C[C@](c1ccccc1)([C@@H]1CCCN1)O2 (atropisomer, axis not shown) [Example 153, 2-((2S,4S)-5-Chloro-6-fluoro-2-phenyl-2-((S)-pyrrolidin-2-yl)-2,3-dihydrobenzofuran-4-yl)-3-fluoro-4-(2-hydroxyethoxy)-N-methylbenzamide]
2 | > 10000 | 3 | > 10 | 343 | 346 | – | – | – | – | COc1ccc(C(N)=O)c(-c2c(Cl)ccc3c2C[C@@](CN)(c2ccccc2F)O3)c1F (atropisomer, axis not shown) [Example 31, 2-((2S,4S)-2-(Aminomethyl)-5-chloro-2-(2-fluorophenyl)-2,3-dihydrobenzofuran-4-yl)-3-fluoro-4-methoxybenzamide]
3 | – | 6 | – | – | – | > 10000 | > 10 | 104 | 167 | CN(C)C(=O)C1CCC(NC[C@@]2(c3ccccc3)Cc3c(cc(F)c(Cl)c3-c3c(C(N)=O)ccc(OC(F)F)c3F)O2)CC1 (single isomer, unassigned) [Example 58b]
4 | 9400 | 6 | > 10 | 391 | 493 | – | – | – | – | COc1ncc(C(N)=O)c(-c2c(Cl)c(F)cc3c2C[C@@](CN)(c2ccccc2)O3)c1F (atropisomer, axis not shown) [Example 42, 4-((2S,4S)-2-(aminomethyl)-5-chloro-6-fluoro-2-phenyl-2,3-dihydrobenzofuran-4-yl)-5-fluoro-6-methoxynicotinamide]
5 | 13000 | 2 | 15.5 | 116 | 73 | – | – | – | – | COc1ccc(C(N)=O)c(-c2c(Cl)c(F)cc3c2C[C@](c2ccccc2)([C@@H]2CCCN2)N3)c1F (atropisomer, axis not shown) [Example 171, 2-((2S,4S)-5-Chloro-6-fluoro-2-phenyl-2-((S)-pyrrolidin-2-yl)indolin-4-yl)-3-fluoro-4-methoxybenzamide]
6 | > 10000 | 2 | > 10 | 36 | 25 | – | – | – | – | C[C@H](O)COc1ccc(C(N)=O)c(-c2c(Cl)c(F)cc3c2C[C@](c2ccccc2)([C@@H]2CCCN2)O3)c1F (atropisomer, axis not shown) [Example 152, 2-((2S,4S)-5-Chloro-6-fluoro-2-phenyl-2-((S)-pyrrolidin-2-yl)-2,3-dihydrobenzofuran-4-yl)-3-fluoro-4-((S)-2-hydroxypropoxy)benzamide]
7 | > 10000 | 3 | > 10 | 25 | 23 | – | – | – | – | CNC[C@]1(c2ccccc2)Oc2cc(F)c(Cl)c(-c3c(C(N)=O)ccc(OC)c3F)c2[C@@H]1COC (atropisomer, axis not shown) [Example 146, 2-((2S,3R,4S)-5-Chloro-6-fluoro-3-(methoxymethyl)-2-((methylamino)methyl)-2-phenyl-2,3-dihydrobenzofuran-4-yl)-3-fluoro-4-methoxybenzamide]
8 | 6700 | 4 | 7.8 | 114 | 171 | – | – | – | – | C[C@]1(O)CC[C@@H](NC[C@@]2(c3ccccc3)Cc3c(cc(F)c(Cl)c3-c3c(C(N)=O)ccc(-n4ccnc4)c3F)O2)CC1 (atropisomer, axis not shown) [Example 69b, 2-((2S,4S)-5-chloro-6-fluoro-2-((((cis)-4-hydroxy-4-methylcyclohexyl)amino)methyl)-2-phenyl-2,3-dihydrobenzofuran-4-yl)-3-fluoro-4-(1H-imidazol-1-yl)benzamide]
9 | – | 4 | – | – | – | 7000 | 13 | 62 | 50 | CNC(=O)c1ccc(OC)c(F)c1-c1c(Cl)c(F)cc2c1C[C@](c1ccccc1)([C@@H]1CCCN1)O2 [Example 175, 2-((2S,4S)-5-Chloro-6-fluoro-2-phenyl-2-((S)-pyrrolidin-2-yl)-2,3-dihydrobenzofuran-4-yl)-3-fluoro-4-methoxy-N-methylbenzamide]
10 | > 10000 | 124 | > 10 | 2920 | 6880 | – | – | – | – | CNc1ccc(C(N)=O)c(-c2c(Cl)ccc3c2C[C@@](CN)(c2ccccc2)O3)c1F (atropisomer, axis not shown) [Example 20, 2-((2S,4S)-2-(Aminomethyl)-5-chloro-2-phenyl-2,3-dihydrobenzofuran-4-yl)-3-fluoro-4-(methylamino)benzamide]
11 | > 10000 | 2 | > 10 | 25 | 44 | – | – | – | – | C[C@H](O)COc1ccc(C(N)=O)c(-c2c(Cl)c(F)cc3c2[C@H](C)[C@@](CN)(c2ccccc2)O3)c1F (atropisomer, axis not shown) [Example 123, 2-((2S,3S,4S)-2-(Aminomethyl)-5-chloro-6-fluoro-3-methyl-2-phenyl-2,3-dihydrobenzofuran-4-yl)-3-fluoro-4-((S)-2-hydroxypropoxy)benzamide]
12 | > 10000 | 7 | > 10 | 91 | 242 | – | – | – | – | COCCOc1ccc(C(N)=O)c(-c2c(Cl)ccc3c2[C@H](O)[C@@](CN)(c2ccccc2)O3)c1F (atropisomer, axis not shown) [Example 88, 2-((2S,3S,4S)-2-(aminomethyl)-5-chloro-3-hydroxy-2-phenyl-2,3-dihydrobenzofuran-4-yl)-3-fluoro-4-(2-methoxyethoxy)benzamide]
13 | > 10000 | 74 | > 10 | 2310 | 1570 | – | – | – | – | NC[C@@]1(c2ccccc2)Cc2c(cc(F)c(Cl)c2-c2c(F)cccc2C(N)=O)N1 (atropisomer, axis not shown) [Example 134, 2-((2S,4S)-2-(aminomethyl)-5-chloro-6-fluoro-2-phenylindolin-4-yl)-3-fluorobenzamide]
14 | 7830 | 7 | > 10 | 153 | 246 | – | – | – | – | COCCOc1ccc(C(N)=O)c(-c2c(Cl)c(F)cc3c2[C@H](C)[C@](c2ccccc2)(C(C)N)O3)c1F (stereo partly drawn) [Example 169, 2-((2S,3S,4S)-2-(1-Aminoethyl)-5-chloro-6-fluoro-3-methyl-2-phenyl-2,3-dihydrobenzofuran-4-yl)-3-fluoro-4-(2-methoxyethoxy)benzamide]
15 | > 10000 | 9 | > 20 | 157 | 256 | – | – | – | – | CNC(=O)c1ccc(OC)c(F)c1-c1c(Cl)ccc2c1C[C@@](CN)(c1ccccc1)O2 (atropisomer, axis not shown) [Example 22, 2-((2S,4S)-2-(Aminomethyl)-5-chloro-2-phenyl-2,3-dihydrobenzofuran-4-yl)-3-fluoro-4-methoxy-N-methylbenzamide]
16 | > 10000 | 1520 | > 10 | 1000 | 1760 | – | – | – | – | Fc1cc2c(c(-c3ccccc3)c1Cl)C[C@](c1ccccc1)(C1COCCN1)O2 (single isomer, unassigned) [Example 162]
17 | 8640 | 7 | > 10 | 247 | 627 | – | – | – | – | NC(=O)c1ccc(OC(F)F)c(F)c1-c1c(Cl)ccc2c1C[C@@](CNC1CCCCC1)(c1ccccc1)O2 (atropisomer, axis not shown) [Example 135, 2-((2S,4S)-5-Chloro-2-((cyclohexylamino)methyl)-2-phenyl-2,3-dihydrobenzofuran-4-yl)-4-(difluoromethoxy)-3-fluorobenzamide]
18 | > 10000 | 5 | > 10 | 93 | 181 | – | – | – | – | NC(=O)c1ccc(OC(F)F)c(F)c1-c1c(Cl)c(F)cc2c1C[C@](c1ccccc1)(C1CC(O)CN1)O2 (single isomer, unassigned) [Example 158]
19 | > 12500 | 4 | 19.5 | 379 | 553 | – | – | – | – | COc1ncc(C(N)=O)c(-c2c(Cl)ccc3c2C[C@@](CN)(c2ccccc2)O3)c1F (atropisomer, axis not shown) [Example 18, 4-((2S,4S)-2-(Aminomethyl)-5-chloro-2-phenyl-2,3-dihydrobenzofuran-4-yl)-5-fluoro-6-methoxynicotinamide]
20 | – | 11 | – | – | – | > 10000 | 7.6 | 194 | 372 | CC(=O)NC1CCC(NC[C@@]2(c3ccccc3)Cc3c(cc(F)c(Cl)c3-c3c(C(N)=O)ccc(OC(F)F)c3F)O2)CC1 (single isomer, unassigned) [Example 56b]
